Results published in US20250108038A1 (priority 2023, published 2025).
Where “and” joins values, the source holds several entries; their conditions need not be identical. Equal values may be shown once. Read-outs that look alike come from different tables or passages of the source.

Tests used:
[1] = test system: human 3D intestinal model (EpiIntestinal); experiment: Intestinal permeability in the EpiIntestinal model; type: in vitro ADME; settings: apical dose 100 μL of 10 mM stock solution, 120 min, 37° C.
Procedure: FIG. 2A. Intestinal permeability of Compound I-19. […] Samples were taken from the basolateral compartment at 0, 15, 30, 60, and 120 min. and were analyzed by LCMSMS for presence of parent compound. Values represent mean+SEM of n=3 separate experiments.
FIG. 2B. Intestinal permeability of Compound I-4 was determined in the human 3D intestinal model (Epilntestinal) from MatTek Corp. Tissues were dosed apically with 100 μL of 10 mM stock solution (4.25 μg) at 0 min. and the tissues were incubated with the test articles at 37° C. for a total of 120 min. Samples were taken from the basolateral compartment at 0, 15, 30, 60, and 120 min. and were analyzed by LCMSMS for presence of parent compound. Values represent mean+SEM of n=3 separate experiments.
Human 3D EpiIntestinal tissue model (MatTek, SMI-100, Lot #33921 Kit B) was used to model the intestine and was used for permeability studies. This model offers […] advantages over other permeability testing models such as Caco-2 cells. […]
The test articles (100 wL of 100 μM solution, or 4.25 ug) was applied to the apical surface of the EpiIntestinal model. […] Metabolic stability was determined by loss of parent compound using LCMSMS.
All data was compiled and organized in Excel. Mean, standard deviation, and standard deviation of the mean were calculated using Excel. […] The permeability coefficient (Papp) was calculated using the following equation: […]

[2] = for plasma concentration of Compound I-19 / Clinical observation (tolerability) / AUC0-inf of Compound I-19 / AUC0-last of Compound I-19 / Cmax of Compound I-19 / MRT0-inf of Compound I-19 / MRT0-last of Compound I-19 / T1/2 of Compound I-19 / Tlast of Compound I-19 / Tmax of Compound I-19 / plasma concentration of Compound I-4 / AUC0-inf of Compound I-4 / AUC0-last of Compound I-4 / Cmax of Compound I-4 / MRT0-inf of Compound I-4 / MRT0-last of Compound I-4 / T1/2 of Compound I-4 / Tlast of Compound I-4 / Tmax of Compound I-4: male Wistar Han rats; for Clinical observation (tolerability): PO and IP, administered dosages; for T1/2 of the administered compound: rat, in vivo, ip
Procedure: Twelve male Wistar Han rats were divided into 4 groups, n=3 per group.
Dose solutions were prepared freshly on the day of study prior to dosing.
The animals were weighed immediately prior to dosing and the dose volume was calculated individually based the obtained body weight and the nominal dose volume. […] The test articles were administered either orally by gavage, or intraperitoneally by injection. The nominal dose volume was 10 mL/kg for both compounds and both routes.
Cage side observation was performed before and after dosing as well as at each scheduled sample collection. The observation included appearance, posture, behavior, morbidity and mortality. Abnormal findings, if any, were recorded in the study notebook and communicated with study director, veterinarian, and Supernus if necessary.
Approximately 100 μL blood was collected at each scheduled time point from jugular veins. The actual sample collection time was within 1 min. of the nominal time for collections prior to or at 1 hour, and within 5% of the nominal time for collections post 1 hour.
The blood samples were placed in pre-labeled micro-centrifuge tubes containing K2EDTA as anticoagulant and kept on ice, and then were processed to plasma within 30 minutes of collection by centrifugation at 4° C., 3000 g for 5 minutes, and then stored at −70±10° C. until analysis by LC-MS/MS.
Plasma concentrations below the LLOQ prior to Tmax were set to zero, and those after Tmax were excluded from PK calculation. The nominal dose and the nominal sample collection time were used for the calculation. The values of plasma concentrations and PK parameters are reported to three significant figures. The average values of each treatment group are presented as mean±SD.

[3] = single IP Compound I-19 4.061 mg/kg, individual animals
[4] = single IP Compound I-19 4.061 mg/kg, mean
[5] = single PO Compound I-19 4.061 mg/kg, individual animals
[6] = single PO Compound I-19 4.061 mg/kg, mean
[7] = single IP Compound I-4 3.708 mg/kg, individual animals
[8] = single IP Compound I-4 3.708 mg/kg, mean
[9] = single PO Compound I-4 3.708 mg/kg, individual animals
[10] = single PO Compound I-4 3.708 mg/kg, mean

## Clc1ccc(C2(OCC3OCCO3)c3ccccc3C3=NCCN32)cc1 (centres unmarked) [Compound I-19]
[1]
  Papp: 1.06e-07 cm/s
[2]; 0.500 h, single IP Compound I-19 4.061 mg/kg, individual animals
  plasma concentration of Compound I-19: 150 ng/mL and 193 ng/mL and 136 ng/mL
[2]; 0.500 h, single IP Compound I-19 4.061 mg/kg, mean
  plasma concentration of Compound I-19: 160 ng/mL
[2]; 2.00 h, single IP Compound I-19 4.061 mg/kg, individual animals
  plasma concentration of Compound I-19: 126 ng/mL and 144 ng/mL and 188 ng/mL
[2]; 2.00 h, single IP Compound I-19 4.061 mg/kg, mean
  plasma concentration of Compound I-19: 153 ng/mL
[2]; 2.00 h, single PO Compound I-19 4.061 mg/kg, individual animals
  plasma concentration of Compound I-19: BQL
[2]; 4.00 h, single IP Compound I-19 4.061 mg/kg, individual animals
  plasma concentration of Compound I-19: 73.3 ng/mL and 69.9 ng/mL and 91.6 ng/mL
[2]; 4.00 h, single IP Compound I-19 4.061 mg/kg, mean
  plasma concentration of Compound I-19: 78.3 ng/mL
[2]; 4.00 h, single PO Compound I-19 4.061 mg/kg, individual animals
  plasma concentration of Compound I-19: BQL
[2]; 8.00 h, single IP Compound I-19 4.061 mg/kg, individual animals
  plasma concentration of Compound I-19: 6.11 ng/mL and 10.1 ng/mL and 10.7 ng/mL
[2]; 8.00 h, single IP Compound I-19 4.061 mg/kg, mean
  plasma concentration of Compound I-19: 8.97 ng/mL
[2]; 8.00 h, single PO Compound I-19 4.061 mg/kg, individual animals
  plasma concentration of Compound I-19: BQL
[2]; 24.0 h, single IP Compound I-19 4.061 mg/kg, individual animals
  plasma concentration of Compound I-19: BQL
[2]; 24.0 h, single PO Compound I-19 4.061 mg/kg, individual animals
  plasma concentration of Compound I-19: BQL
[2]; […] h, single IP Compound I-19 4.061 mg/kg, mean
  plasma concentration of Compound I-19: 168 ng/mL
[2]
  Clinical observation (tolerability): well tolerated
  T1/2 of the administered compound: 1.43 ± 0.107 h
[2]; [3]
  AUC0-inf of Compound I-19: 584 ng·h/mL and 660 ng·h/mL and 771 ng·h/mL
  AUC0-last of Compound I-19: 572 ng·h/mL and 637 ng·h/mL and 749 ng·h/mL
  Cmax of Compound I-19: 158 ng/mL and 193 ng/mL and 192 ng/mL
  MRT0-inf of Compound I-19: 2.63 h and 2.73 h and 2.80 h
  MRT0-last of Compound I-19: 2.48 h and 2.47 h and 2.59 h
  T1/2 of Compound I-19: 1.33 h and 1.54 h and 1.43 h
  Tlast of Compound I-19: 8.00 h
  Tmax of Compound I-19: 30 min
[2]; [4]
  AUC0-inf of Compound I-19: 672 ng·h/mL
  AUC0-last of Compound I-19: 653 ng·h/mL
  Cmax of Compound I-19: 181 ng/mL
  MRT0-inf of Compound I-19: 2.72 h
  MRT0-last of Compound I-19: 2.51 h
  T1/2 of Compound I-19: 1.43 h
  Tlast of Compound I-19: 8.00 h
  Tmax of Compound I-19: 35 min
[2]; [5]
  AUC0-last of Compound I-19: 0.510 ng·h/mL and 0.285 ng·h/mL
  Cmax of Compound I-19: 1.02 ng/mL and 1.14 ng/mL
  MRT0-last of Compound I-19: 1.00 h and 0.500 h
  Tlast of Compound I-19: 1.00 h and 0.500 h
  Tmax of Compound I-19: 30 min
[2]; [6]
  AUC0-last of Compound I-19: 0.398 ng·h/mL
  Cmax of Compound I-19: 1.08 ng/mL
  MRT0-last of Compound I-19: 0.750 h
  Tlast of Compound I-19: 0.750 h

## COCCOC1(c2ccc(Cl)cc2)c2ccccc2C2=NCCN21 (centres unmarked) [Compound I-4]
[1]
  Papp: 1.55e-07 cm/s
[2]; 0.500 h, single IP Compound I-4 3.708 mg/kg, individual animals
  plasma concentration of Compound I-4: 90.3 ng/mL and 48.4 ng/mL and 115 ng/mL
[2]; 0.500 h, single IP Compound I-4 3.708 mg/kg, mean
  plasma concentration of Compound I-4: 84.6 ng/mL
[2]; 0.500 h, single PO Compound I-4 3.708 mg/kg, mean
  plasma concentration of Compound I-4: 9.01 ng/mL
[2]; 2.00 h, single IP Compound I-4 3.708 mg/kg, individual animals
  plasma concentration of Compound I-4: 96.7 ng/mL and 85.7 ng/mL and 119 ng/mL
[2]; 2.00 h, single IP Compound I-4 3.708 mg/kg, mean
  plasma concentration of Compound I-4: 100 ng/mL
[2]; 2.00 h, single PO Compound I-4 3.708 mg/kg, mean
  plasma concentration of Compound I-4: 6.06 ng/mL
[2]; 4.00 h, single IP Compound I-4 3.708 mg/kg, individual animals
  plasma concentration of Compound I-4: 54.6 ng/mL and 98.6 ng/mL and 61.1 ng/mL
[2]; 4.00 h, single IP Compound I-4 3.708 mg/kg, mean
  plasma concentration of Compound I-4: 71.4 ng/mL
[2]; 4.00 h, single PO Compound I-4 3.708 mg/kg, mean
  plasma concentration of Compound I-4: 2.75 ng/mL
[2]; 8.00 h, single IP Compound I-4 3.708 mg/kg, mean
  plasma concentration of Compound I-4: 31.7 ng/mL
[2]; 8.00 h, single PO Compound I-4 3.708 mg/kg, individual animals
  plasma concentration of Compound I-4: 1.40 ng/mL and 1.11 ng/mL and 1.53 ng/mL
[2]; 8.00 h, single PO Compound I-4 3.708 mg/kg, mean
  plasma concentration of Compound I-4: 1.35 ng/mL
[2]; 24.0 h, single IP Compound I-4 3.708 mg/kg, individual animals
  plasma concentration of Compound I-4: BQL
[2]; 24.0 h, single PO Compound I-4 3.708 mg/kg, individual animals
  plasma concentration of Compound I-4: BQL
[2]; […] h, single IP Compound I-4 3.708 mg/kg, mean
  plasma concentration of Compound I-4: 95.5 ng/mL
[2]; […] h, single PO Compound I-4 3.708 mg/kg, mean
  plasma concentration of Compound I-4: 6.98 ng/mL
[2]
  Clinical observation (tolerability): well tolerated
  T1/2 of the administered compound: 2.51 h
[2]; [7]
  AUC0-inf of Compound I-4: 567 ng·h/mL and 597 ng·h/mL
  AUC0-last of Compound I-4: 473 ng·h/mL and 599 ng·h/mL and 546 ng·h/mL
  Cmax of Compound I-4: 120 ng/mL and 98.6 ng/mL and 140 ng/mL
  MRT0-inf of Compound I-4: 4.58 h and 3.48 h
  MRT0-last of Compound I-4: 3.06 h and 4.10 h and 2.77 h
  T1/2 of Compound I-4: 2.90 h and 2.12 h
  Tlast of Compound I-4: 8.00 h
[2]; [8]
  AUC0-inf of Compound I-4: 582 ng·h/mL
  AUC0-last of Compound I-4: 539 ng·h/mL
  Cmax of Compound I-4: 120 ng/mL
  MRT0-inf of Compound I-4: 4.03 h
  MRT0-last of Compound I-4: 3.31 h
  T1/2 of Compound I-4: 2.51 h
  Tlast of Compound I-4: 8.00 h
  Tmax of Compound I-4: 1.50 h
[2]; [9]
  AUC0-inf of Compound I-4: 56.4 ng·h/mL
  MRT0-inf of Compound I-4: 2.61 h
  MRT0-last of Compound I-4: 3.86 h and 2.20 h and 4.46 h
  T1/2 of Compound I-4: 1.74 h
  Tlast of Compound I-4: 8.00 h
[2]; [10]
  AUC0-last of Compound I-4: 25.2 ng·h/mL
  Cmax of Compound I-4: 9.18 ng/mL
  MRT0-last of Compound I-4: 3.51 h
  Tlast of Compound I-4: 8.00 h
  Tmax of Compound I-4: 1.67 h
